Measurements reported in patent US8859743B2, “Controlling microbial contamination in alcoholic fermentation process” (Arch Chemicals, Inc., priority 2009, dated 2014).

Columns and labels:
Format in all cases: cell-based
Saccharomyces cerevisiae = experiment: Count of fermentative yeast in treated fermentative must (WLN)
Wild yeast = experiment: Count of wild yeast in treated fermentative must (WLN+)
Lactobacilli = experiment: Count of Lactobacilli in treated fermentative must (MRS)
bacteria = experiment: Count of other bacteria in treated fermentative must (TSA)
[1] = in relation to the control sample 4

## CC[C@@]1([C@@H]2O[C@@H]([C@H]3O[C@@](O)(CO)[C@H](C)C[C@@H]3C)C[C@@H]2C)CC[C@H]([C@]2(C)CC[C@]3(C[C@H](O)[C@@H](C)[C@@H]([C@@H](C)[C@@H](OC)[C@H](C)C(=O)O)O3)O2)O1 [Sample 01, monensin]
Saccharomyces cerevisiae; fermentative must after treatment, blank 1.3 × 10^6
  WLN UFC/mL Saccharomyces cerevisiae: 1 × 10^5 UFC/mL
Saccharomyces cerevisiae; [1]
  reduction in the fermentative yeast: about 1 log
Wild yeast; fermentative must after treatment, blank 9.5 × 10^6
  WLN+ UFC/mL Wild yeast: 2 × 10^4 UFC/mL
Wild yeast; [1]
  reduction in the wild yeast: about 3 log
Lactobacilli; fermentative must after treatment, blank 3.1 × 10^6
  MRS UFC/mL Lactobacilli: 2.5 × 10^2 UFC/mL
Lactobacilli; [1]
  reduction in the Lactobacilli: about 4 log
bacteria; fermentative must after treatment, blank 6 × 10^5
  TSA UFC/mL bacteria: 7 × 10^3 UFC/mL
bacteria; [1]
  reduction in other bacteria: about 2 log
